A word on the IC50: it is the concentration needed to halve the response being measured. A low value points to greater potency.

Data on ten substances can be found in patent US11214803B2, “Modulators of YAP1 expression” (Ionis Pharmaceuticals, Inc., priority 2019, dated 2022).

Strand notation (5' to 3'): a small letter for the sugar, then the base; units joined by * are phosphorothioate-linked, units joined directly phosphodiester-linked; [ ] holds rarer units or linkages, { } end groups; capitals alone tell only the bases. k = constrained ethyl (cEt); [5mC] = 5-methylcytosine; d = 2'-deoxy (DNA)

Type in all cases: cell-based
Data set [1] has as its system Yap1 mRNA. The data set is described as follows: Dose-dependent inhibition of human Yap1 in A-431 cells (Example 6, 5,000 cells per well, RTS4814). The note with it: for % UTC 148 nM / % UTC 444 nM / % UTC 1333 nM / % UTC 4000 nM: approximately 48 hours; for Yap1 mRNA, % UTC: 48 hours. How it is done:
Modified oligonucleotides described in the studies above were tested at various doses in A-431 cells. Cultured A-431 cells at a density of 5,000 cells per well were treated using free uptake with modified oligonucleotides diluted to concentrations described in the tables below. After approximately 48 hours, Yap1 mRNA levels were measured as previously described using the Human Yap1 primer-probe set RTS4814. Yap1 mRNA levels were normalized to total RNA content, as measured by RIBOGREEN®. Results are presented in the tables below as percent control of the amount of Yap1 mRNA relative to untreated control cells (% UTC). IC50s were calculated using a linear regression on a log/linear plot of the data in excel.

Data set [2] has as its system Yap1 mRNA. The data set is described as follows: Antisense inhibition of human Yap1 in SNU-449 cells by modified oligonucleotides, single dose (Example 5, RTS36584). The settings on record: Yap1 mRNA, percent of untreated control; modified oligonucleotides targeting SEQ ID NO: 1 and 2; Table 47. The method, boiled down: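 Values are % of untreated control: Yap1 mRNA by quantitative RT-PCR (RTS36584), normalized to RIBOGREEN total RNA. Oligonucleotides were dosed at 2,000 nM, free uptake, in SNU-449 cells, with roughly 48 h exposure before RNA isolation.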

Data set [3] has as its system Yap1 mRNA. The data set is described as follows: Antisense inhibition of human Yap1 in A-431 cells by cEt gapmers, single dose (Example 4, RTS4814). The settings on record: Table 17; A-431 cells, 5,000 cells per well, free uptake, 2,000 nM, approximately 48 hours; RTS4814; normalized to RIBOGREEN; Yap1 mRNA relative to untreated control cells. The method, boiled down:
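A-431 cells took up 3-10-3 cEt gapmers (16-mer, full phosphorothioate, 5-methylcytosines) by free uptake at 2,000 nM for about 48 h. Yap1 mRNA was quantified by qRT-PCR, normalized to total RNA (RIBOGREEN), and reported as % of untreated control.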

The mark [4] stands for this setting: Table 54, A-431 cells, Yap1 mRNA, linear regression on a log/linear plot.
Setting [5] is: Table 54, A-431 cells, free uptake, 148 nM, RTS4814.
Where [6] appears, read: Table 54, A-431 cells, free uptake, 444 nM, RTS4814.
Where [7] appears, read: Table 54, A-431 cells, free uptake, 1333 nM, RTS4814.
Setting [8] is: Table 54, A-431 cells, free uptake, 4000 nM, RTS4814.
Setting [9] is: Table 53, A-431 cells, Yap1 mRNA, linear regression on a log/linear plot.
Setting [10] is: Table 53, A-431 cells, free uptake, 148 nM, RTS4814.
[11] abbreviates: Table 53, A-431 cells, free uptake, 444 nM, RTS4814.
[12] abbreviates: Table 53, A-431 cells, free uptake, 1333 nM, RTS4814.
Where [13] appears, read: Table 53, A-431 cells, free uptake, 4000 nM, RTS4814.
The mark [14] stands for this setting: Table 55, 148 nM, free uptake, A-431 cells 5,000 cells per well, RTS4814.
Setting [15] is: Table 55, 444 nM, free uptake, A-431 cells 5,000 cells per well, RTS4814.
Setting [16] is: Table 55, 1333 nM, free uptake, A-431 cells 5,000 cells per well, RTS4814.
Setting [17] is: Table 55, 4000 nM, free uptake, A-431 cells 5,000 cells per well, RTS4814.
Setting [18] is: Table 55, A-431 cells 5,000 cells per well, free uptake, RTS4814.

For “715414 (kA*kA*k[5mC]*dA*dT*dG*d[5mC]*dT*dG*dT*dG*dG*dA*kG*kT*k[5mC]; antisense) [compound 715414]”, the IC50 in data set [1] (setting [4]) was over 4 µM. Also, in data set [1] (setting [5]), the “% UTC 148 nM” value stood at 91 % UTC. Also, in data set [1] (setting [6]), the “% UTC 444 nM” value was determined as 91 % UTC. The “% UTC 1333 nM” value in data set [1] (setting [7]) stood at 102 % UTC. Also, in data set [1] (setting [8]), the “% UTC 4000 nM” value is 67 % UTC.

In data set [1] (setting [9]), “715555 (kG*kT*kT*dA*dT*dT*d[5mC]*dA*dG*d[5mC]*dA*dG*d[5mC]*kT*kT*kA; antisense) [compound 715555]” registered an IC50 of 2.5 µM. In addition, in data set [1] (setting [10]), the “% UTC 148 nM” value stood at 93 % UTC. The “% UTC 444 nM” value in data set [1] (setting [11]) was 71 % UTC. For the same substance, the “% UTC 1333 nM” value in data set [1] (setting [12]) is given as 63 % UTC. Besides, the “% UTC 4000 nM” value in data set [1] (setting [13]) is listed as 42 % UTC.

For “716407 (antisense k[5mC]*kT*kT*dA*dG*dT*d[5mC]*d[5mC]*dA*d[5mC]*dT*dG*dT*k[5mC]*kT*kG) [compound 716407]”, the “Yap1 mRNA, % UTC” value in data set [1] (setting [14]) was found to be 84 % UTC; in data set [1] (setting [15]) it was 75 % UTC; in data set [1] (setting [16]), 72 % UTC; in data set [1] (setting [17]), 39 % UTC. For the same substance, in data set [1] (setting [18]), half-maximal inhibition (IC50) required 3 µM.

In the case of “716479 (antisense kG*kA*kA*d[5mC]*dA*dA*dT*d[5mC]*dT*dT*dG*dA*dA*kG*kG*k[5mC]) [compound 716479]”, the “Yap1 mRNA, % UTC” value in data set [1] (setting [14]) is recorded as 88 % UTC; in data set [1] (setting [15]), 78 % UTC; in data set [1] (setting [16]) it was 55 % UTC; in data set [1] (setting [17]), 57 % UTC. In data set [1] (setting [18]), this substance had an IC50 of over 4 µM.

As to “716376 (k[5mC]*kG*kA*dA*dG*dA*dT*dG*d[5mC]*dT*dG*dA*dG*k[5mC]*kT*kG; antisense) [compound 716376]”, in data set [1] (setting [4]), the IC50 was over 4 µM. Besides, the “% UTC 148 nM” value in data set [1] (setting [5]) was found to be 103 % UTC. Moreover, the “% UTC 444 nM” value in data set [1] (setting [6]) came to 94 % UTC. For the same substance, the “% UTC 1333 nM” value in data set [1] (setting [7]) was 79 % UTC. Further, in data set [1] (setting [8]), the “% UTC 4000 nM” value was 50 % UTC.

As for “716548 (antisense kG*kA*kG*dT*dT*dT*d[5mC]*dA*dA*d[5mC]*dA*d[5mC]*dT*kG*kA*kT) [compound 716548]”, the “Yap1 mRNA, % UTC” value is given as 99 % UTC in data set [1] (setting [14]), 89 % UTC in data set [1] (setting [15]), 79 % UTC in data set [1] (setting [16]) and 67 % UTC in data set [1] (setting [17]). Further, the IC50 in data set [1] (setting [18]) was over 4 µM.

In the case of “716496 (antisense kG*kA*kA*dG*dA*dG*dA*dT*dT*dT*dT*dA*dT*kG*k[5mC]*k[5mC]) [compound 716496]”, the IC50 in data set [1] (setting [4]) is over 4 µM. Further, the “% UTC 148 nM” value in data set [1] (setting [5]) is listed as 74 % UTC. The “% UTC 444 nM” value in data set [1] (setting [6]) amounted to 87 % UTC. In addition, the “% UTC 1333 nM” value in data set [1] (setting [7]) is given as 64 % UTC. Further, the “% UTC 4000 nM” value in data set [1] (setting [8]) is recorded as 49 % UTC.

In data set [1] (setting [9]), “715423 (k[5mC]*k[5mC]*kA*dT*dG*dT*dT*dG*dT*dT*dG*dT*d[5mC]*kT*kG*kA; antisense) [compound 715423]” registered an IC50 of over 4 µM. In data set [1] (setting [10]), the “% UTC 148 nM” value stood at 83 % UTC. Besides, the “% UTC 444 nM” value in data set [1] (setting [11]) is recorded as 91 % UTC. The “% UTC 1333 nM” value in data set [1] (setting [12]) is recorded as 80 % UTC. Further, the “% UTC 4000 nM” value in data set [1] (setting [13]) is given as 57 % UTC.

In the case of “716554 (antisense kA*kT*kG*d[5mC]*dT*dT*dG*d[5mC]*dG*dA*dG*dG*dA*kT*kA*kA) [compound 716554]”, the “Yap1 mRNA, % UTC” value in data set [1] (setting [14]) turned out to be 87 % UTC; in data set [1] (setting [15]) it was 90 % UTC; in data set [1] (setting [16]), 76 % UTC; in data set [1] (setting [17]), 50 % UTC. This substance also came in with an IC50 in data set [1] (setting [18]) of over 4 µM.

For the substance “1074755 (CACTTTTACATTAGGA; antisense; chemistry not fully specified) [Compound 1074755]”, the “YAP1 (% UT)” value in data set [2] came out at 23 % UT. Further, the “YAP1 (% UTC)” value in data set [3] was 3 % UTC.
